Laboratory results published in US12128023B2, “Pharmaceutical composition containing B-lapachone as active ingredient for prevention or treatment of cholestatic liver disease” (CUROME BIOSCIENCES CO., LTD., priority 2020, dated 2024).

What was measured:
[1] = system: DDC-induced cholestatic liver disease mice; experiment: DDC-induced cholestatic liver disease mice, DDC and β-lapachone administered together for 7 days; type: in vivo, C57BL/6 male mice
Procedure: To investigate the effect of β-lapachone (BL) on the occurrence of cholestatic liver disease, both […] and β-lapachone were administered to mice to characterize animal models.
After 8-week-old C57BL/6 male mice (Samtako, Korea) were divided into each group (=6), the mice were fed a diet with normal (vehicle), control (DDC), DDC-+β-lapachone 20 mg/kg, DDC+β-lapachone 40 mg/kg, DDC+β-lapachone 80 mg/kg, DDC+β-lapachone 100 mg/kg, and positive control DDC+ursodeoxycholic acid 100 mg/kg, and DDC+obeticholic acid 30 mg/kg (total 7 days). After 7 days of treatment, the mice were sacrificed and then the blood was collected from the heart. Thereafter, the levels of alanine aminotransferase (ALT), aspartate aminotransferase (AST), alkaline phosphatase (ALP), and bilirubin, which are blood indexes, were analyzed, and shown in FIG. 4.
After the cholestatic liver disease mouse animal models in Example 3.1 were sacrificed and the liver tissue was harvested therefrom, the mRNA levels of fibrosis-related genes were measured by a method similar to the method in Example 2.3.
In the cholestatic liver disease, the inflammation in the portal vein and damage to the bile ducts in the liver occur chronically, resulting in cholestasis and liver fibrosis. The mRNA levels of inflammatory cytokine genes in the liver tissue of the cholestatic liver disease mouse animal models obtained by the same method as in Example 3.1 were measured, and shown in FIG. 6.

[2] = system: DSS-induced inflammatory bowel disease mice; experiment: DSS-induced inflammatory bowel disease (acute colitis) mouse models; type: in vivo, C57BL/6 female mice; settings: for mortality (percent of mice that died): 14th day of the experiment, 70% died in DSS-induced IBD mice
Procedure: Dextran sodium sulfate (DSS)-induced acute colitis mouse models were constructed using 8-week-old C57BL/6 female mice (Samtako, Korea).
After 8-week-old C57BL/6 female mice (Samtako, Korea) were divided into each group (=10), each experimental group was fed a standard rodent diet supplemented with 3% (w/w) DSS in drinking water for the first 5 days to induce acute colitis and orally administered control (vehicle), β-lapachone 40 mg/kg, and β-lapachone 80 mg/kg for 14 days.
All animal-related procedures were discussed and approved by the Institutional Animal Care and Use Committee of the Hanyang University. The survival rate over time is shown in FIG. 9, and the change rate in body weight of mice in each experimental group was measured and shown in FIG. 10A. The fecal occult bleeding per rectum, total bleeding loss, and fecal concentration were measured daily.
By the same method as in Example 6.1, experimental groups were divided into a DSS untreated group (Control), a DSS treated group, and a DSS-+β-lapachone 80 mg/kg treated group, respectively, and treated. After the end of the experiment, the mice were sacrificed to remove the colon, and the accurate colon length was measured using a Vernier caliper, and is shown FIGS. 11A and 11B. In addition, the mRNA levels of genes of interleukin-1beta (IL-1β), interleukin-6 (IL-6), interleukin-18 (IL-18), interferon-γ (INF-γ), tumor necrosis factor-α (TNF-α), tumor necrosis factor-β (TNF-β), and monocyte chemoattractant protein-1 (MCP-1), which were inflammatory cytokine factors in the colon tissue, were analyzed by a real-time polymerase chain reaction through a conventional experiment procedure, and are shown in FIG. 12.

[3] = system: peripheral blood mononuclear cells (PBMCs); experiment: IL-1β and IL-18 expression in LPS and ATP treated peripheral blood mononuclear cells; type: cell-based, C57BL/6 male mice; settings: LPS 200 ng/mL and ATP, β-lapachone 0.5, 1, 2 μM, 4 hours
Procedure: Considering that inflammatory cytokines mediate the pathogenic mechanism of cholestatic liver disease, the peripheral blood mononuclear cell model was used by a modified method of Boyum et al. (1968). Peripheral blood mononuclear cells isolated from healthy 8-week-old C57BL/6 male mice (Samtako, Korea) were maintained by primary culture in RPMI-1640 medium containing 10% FBS, 2 mM glutamine, 100 U penicillin, and 0.1 mg/ml streptomycin. Stable peripheral blood mononuclear cells (PBMCs) were treated with LPS at 200 ng/mL and ATP and β-lapachone at 0, 0.5, 1, 2 μM in the medium and, after 4 hours, the expression levels of IL-1β and IL-18 were investigated, and the results are shown in FIG. 15.

[4] = system: DDC-induced cholestatic liver disease mice; experiment: Treatment effect in cholestatic liver disease-induced mice (DDC 3 days, then treatment 4 days); type: in vivo, C57BL/6 male mice
Procedure: The treatment effect of β-lapachone in cholestatic liver disease-induced mouse animals were investigated. After 8-week-old C57BL/6 male mice (Samtako, Korea) were divided into each group (=6), each group excluding a control group was fed a diet containing 0.1% DDC for 3 days. Thereafter, the mice were fed a diet with DDC control (vehicle), DDC-+β-lapachone 20 mg/kg, DDC-+β-lapachone 40 mg/kg, DDC-+β-lapachone 80 mg/kg, and positive control DDC+obeticholic acid 30 mg/kg for 4 days (total 7 days). After 7 days of feeding, the mice were sacrificed and then the blood was collected from the heart.

[5] = system: LX-2 hepatic stellate cell line; experiment: Fibronectin and α-SMA protein expression in TGF-β1-treated LX-2 hepatic stellate cell line (immunoblotting); type: cell-based; settings: LX-2, 1 ng/ml TGF-β1 + 0.5 or 1 μM β-lapachone, 24 hours
Procedure: Considering that inflammation and fibrosis of bile ducts cause cirrhosis in cholestatic liver disease, experiments were performed on the LX-2 hepatic stellate cell line model by using the method of Takaaki Higashi et al. (2017). The LX-2 cell line was subcultured in DMEM containing 10% FBS, 2 mM glutamine, 100 U penicillin, and 0.1 mg/ml streptomycin. The LX-2 cell line was added into a 6-well plate at a density of 16×10^4 cells/well, and cultured in DMEM containing 1 ng/ml TGF-β1, 1 ng/ml TGF-β1+0.5 μM β-lapachone or 1 ng/ml TGF-β1+1 μM β-lapachone for 24 hours. Thereafter, the protein expression levels of the fibrosis-related genes fibronectin and α-SMA of the obtained cells were measured by protein immunoblotting according to a conventional method known in the art.

[6] = DDC + β-lapachone 20, 40, 80, 100 mg/kg in diet, depending on the concentration
[7] = liver mRNA, DDC + β-lapachone, depending on the concentration
[8] = DSS + β-lapachone 80 mg/kg vs DSS
[9] = 0.1% DDC 3 days, then DDC + β-lapachone 20, 40, 80 mg/kg in diet 4 days, depending on the concentration

For CC1(C)CCC2=C(O1)c1ccccc1C(=O)C2=O [β-lapachone], the “ALP in the blood” value [1, 6] was “inhibited”, the “ALT in the blood” value [1, 6] was “inhibited” and the “AST in the blood” value [1, 6] was “inhibited”. For the same compound, the “bilirubin in the blood” value [1, 6] was “inhibited”, the “transcriptional level of IL-1β” value ([1]; liver mRNA, DDC + β-lapachone) was “inhibited” and the “transcriptional level of TNFα” value ([1]; liver mRNA, DDC + β-lapachone) was “inhibited”. The “transcriptional level of Col1α1” value [1, 7] was “inhibited”, the “transcriptional level of Col1α2” value [1, 7] was “inhibited” and the “transcriptional level of TGF-β1” value [1, 7] was “inhibited”. The “effect on blood indexes (ALT, AST, ALP, bilirubin) compared with positive controls” value ([1]; vs ursodeoxycholic acid 100 mg/kg and obeticholic acid 30 mg/kg) was “excellent effects compared with ursodeoxycholic acid (UDCA) and obeticholic acid (OCA)”, the “mRNA level of IL-1β in colon tissue” value [2, 8] was “significantly reduced” and the “mRNA level of IL-6 in colon tissue” value [2, 8] was “significantly reduced”. The “mRNA level of IL-18 in colon tissue” value [2, 8] was “significantly reduced”, the “mRNA level of INF-γ in colon tissue” value [2, 8] was “significantly reduced” and the “mRNA level of MCP-1 in colon tissue” value [2, 8] was “significantly reduced”. The “mRNA level of TNF-α in colon tissue” value [2, 8] was “significantly reduced”, the “mRNA level of TNF-β in colon tissue” value [2, 8] was “significantly reduced” and the colon length ([2]; DSS + β-lapachone 80 mg/kg vs DSS treated group) was “recovered”. The colitis score ([2]; sum of scores for body weight reduction, feces condition, blood feces (Table 3), β-lapachone 40 and 80 mg/kg) was “reduced depending on the treatment concentration”, the “mortality (percent of mice that died)” value ([2]; β-lapachone 40 mg/kg orally) was 50% and the “mortality (percent of mice that died)” value ([2]; β-lapachone 80 mg/kg orally) was 20%. The “expression level of IL-1β increased by LPS and ATP” value [3] was “reduced depending on the concentration”, the “expression level of IL-18 increased by LPS and ATP” value [3] was “reduced depending on the concentration” and the “ALP in the blood” value [4, 9] was “inhibited”. For the same compound, the “bilirubin in the blood” value [4, 9] was “inhibited”, the “effect on blood indexes (bilirubin, ALP) compared with positive controls” value ([4]; vs ursodeoxycholic acid (UDCA) and obeticholic acid (OCA)) was “excellent effect compared with ursodeoxycholic acid (UDCA) and obeticholic acid (OCA)” and the “protein expression level of fibronectin increased by TGF-β1” value [5] was “reduced depending on the concentration”. The “protein expression level of α-SMA increased by TGF-β1” value [5] was “reduced depending on the concentration”.
